The text below walks through data of patent publication US20230230698A1, “ANTIMICROBIAL CHOICE ALGORITHM FOR URINARY TRACT INFECTIONS” (Northwestern University, priority 2020, published 2023).

Read-outs that look alike come from different tables or passages of the source.

Experiment [1] deals with uropathogen. Briefly: Urine culture antimicrobial susceptibility (Vitek 2), women outpatients with uncomplicated UTI. It is filed as cell-based. Particulars: for proportion with culture susceptible, theoretical scenario of all patients receiving the drug / proportion with culture susceptible if everyone was prescribed the drug: 2018 cohort; for proportion with culture susceptible, theoretical scenario of all patients receiving the drug: 258 patients with prior microbiologic data; for proportion with culture susceptible, theoretical scenario of all patients being prescribed the drug: 2018 cohort, 1,169 patients without prior microbiologic data; for proportion with culture susceptible if everyone was prescribed the drug: all 1,427 patients; for Overall prevalence of resistance / proportion of patients resistant: uncomplicated UTI; for Overall prevalence of resistance: 2011-2017 cohort, 9,455 positive cultures (>=10^3 CFU/mL), resistant or intermediate susceptibility; for proportion of patients resistant: 2018 testing cohort, 1,427 women, Chicago ZIP code. The source says:
Data were obtained from the Northwestern Medicine Enterprise Data Warehouse, which is a data integration warehouse designed for research and clinical operations. […] Cultures were included in analysis if positive (identified uropathogen≥10^3 colony forming units per milliliter (CFU/mL)) and antimicrobial susceptibilities reported for the dominant species. The colony count cutoff of ≥10^3 CFU/mL was used as it has been noted that low thresholds have appropriate diagnostic value for women with symptoms of a UTI.^5, 17, 18 The Northwestern Medicine Institutional Review Board approved this study (STU00207763).
All specimen collection and testing were done uniformly in accordance with Northwestern Medicine Guidelines. Isolation, colony count and identification testing were performed using Vitek 2 cards (bioMérieux).
For the 2011-2017 patients, outcomes of interest were uropathogen resistance (defined as resistant or intermediate susceptibility) to SXT, NIT and CIP. Covariates were patient demographics (age, race and patient's place of residence (ZIP code)) antimicrobial prescriptions within the past two years, diagnosis codes associated with current and past encounters, past urine culture results and department to which they presented. Risk factors were compared between patients who had resistant and sensitive cultures using two-sample t-tests (continuous variables) and chi-squared tests (categorical variables). Multivariate logistic regression models were used to investigate the association between risk factors and resistant cultures. Odds ratios (OR) were derived from these models to determine the probability of having a resistant culture with those factors.
The algorithms developed using the above-described cohort were then tested on the 2018 cohort. […] All analyses were done using R (version 3.5.2).

Experiment [2] deals with uropathogen. Briefly: Urine culture antimicrobial susceptibility (Vitek 2), outpatients with complicated UTI. It is filed as cell-based. The settings on record: for Overall prevalence of resistance: complicated UTI outpatients, 2012-2018, 2,286 cultures (>=10^3 CFU/mL), resistant or intermediate susceptibility; for proportion of patients resistant: complicated UTI, 2017-2018 testing cohort, 646 patients, Chicago ZIP code. The source says: Materials and Methods: We performed a retrospective, single-center, cross-sectional study of 2,286 outpatients with a diagnosed complicated UTI from 2012-2018. For patients with confirmed UTI (≥10^3 CFU/mL) with antimicrobial sensitivities, univariate analyses and multivariable regression models were used to determine odds ratios for predicting resistance to SXT, NIT, CIP, CF-1, and CF-3 for the 2012-2016 data. Antimicrobial choice algorithms were created using 2012-2016 results and tested on 2017-2018 data.
This study was approved and performed in accordance with the Northwestern Medicine Institutional Review Board (STU00207763). This is a retrospective cross-sectional study of patients aged 18 or older that submitted urine cultures as outpatients from 2012 to 2018 at any Northwestern Medicine site, which encompasses the greater Chicago area. Data were obtained from the Northwestern Medicine Enterprise Data Warehouse, which is a data integration warehouse designed for research and clinical operations. […] Patients and cultures were included only if they were linked to any ICD 9 or 10 diagnosis code in the previous two years that would have been associated with a complicated UTI^6. Patients were included exactly once based on their most recent culture, and all prior culture data were used as covariates. […] Cultures were included in analysis if positive (identified uropathogen≥10^3 colony forming units per milliliter (CFU/mL)) and antimicrobial susceptibilities were reported for the dominant species. All specimen collection and testing were done uniformly in accordance with Northwestern Medicine Guidelines. Isolation, colony count and identification testing were performed using Vitek 2 cards (bioMérieux).
For the 2012 to 2016 patients, outcomes of interest were uropathogen resistance (defined as resistant or intermediate susceptibility) to trimethoprim-sulfamethoxazole (SXT), ciprofloxacin (CIP), nitrofurantoin (NIT), first-generation cephalosporin (CF-1) and third-generation cephalosporin (CF-3). The resistance prevalence was also stratified by Chicago ZIP code for each antimicrobial.
The algorithms developed using the above-described cohort were then tested on the 2017-2018 cohort. […] Also, the predictive value of time between cultures and uropathogen concurrence between cultures was examined in this cohort^10,17. All analyses were done using R (version 3.5.2).

The test system of experiment [3] is uropathogen. Briefly: Resistance in community acquired UTIs, uncomplicated and complicated combined. The settings on record: 2018. It counts as cell-based. The source says: The prevalence of resistance for patients with complicated UTIs was compared to data from our previous publication for uncomplicated UTIs and available hospital data^17. The prevalence of resistance by ZIP code for the complicated UTI population was then compared between each antibiotic and to the distribution of prevalence by ZIP code for the uncomplicated population for the previous study, for CIP, SXT and NIT (the three antimicrobials evaluated in the previous study)^17.

For experiment [4], the system named is uropathogen. The settings on record: 2018, both inpatient and outpatient cultures; cited from earlier work.

As to trimethoprim-sulfamethoxazole [SXT], in experiment [1], the “proportion with culture susceptible, theoretical scenario of all patients receiving the drug” value turned out to be 72.1%; the “proportion with culture susceptible, theoretical scenario of all patients being prescribed the drug” value is 79.3%; the “proportion with culture susceptible if everyone was prescribed the drug” value amounted to 78.0%; the “Overall prevalence of resistance” value stood at 19.4%. Besides, in experiment [1], the “proportion of patients resistant” value came out at 22.0%. Also, in experiment [2], the “Overall prevalence of resistance” value came out at 25.5% and the “proportion of patients resistant” value amounted to 25.9%.

On to `O=C1CN(/N=C/c2ccc([N+](=O)[O-])o2)C(=O)N1` [NIT, nitrofurantoin], for which, in experiment [1], the “proportion with culture susceptible, theoretical scenario of all patients receiving the drug” value is 93.8%; the “proportion with culture susceptible, theoretical scenario of all patients being prescribed the drug” value was 89.2%; the “proportion with culture susceptible if everyone was prescribed the drug” value came out at 90.0%; the “Overall prevalence of resistance” value came out at 12.1%. Also, the “proportion of patients resistant” value in experiment [1] is given as 10.0%. Further, in experiment [2], the “Overall prevalence of resistance” value is listed as 18.9% and the “proportion of patients resistant” value is 18.1%.

In the case of `O=C(O)c1cn(C2CC2)c2cc(N3CCNCC3)c(F)cc2c1=O` [CIP, ciprofloxacin], the “Overall prevalence of resistance” value is on record as 10.3% in experiment [1], 19.4% in experiment [2] and 25% in experiment [4]. In addition, the entries for the “proportion of patients resistant” value in experiment [1] and in experiment [2] were 10.7% and 18.4%, respectively. Also, the “resistance, complicated UTI” value in experiment [2] (2018, community acquired) is 16.2%. In experiment [3], the “resistance for community acquired UTIs, both uncomplicated and complicated” value was 11.2%.
